Earlier results as cited in patent US20110027361A1, “EXTENDED RELEASE DOSAGE FORM OF PALIPERIDONE” (TORRENT PHARMACEUTICALS LTD., priority 2008, published 2011).

Columns and labels:
[1] = in vivo

solubility in 0.1N HCl (0.1N HCl): sparingly soluble | solubility in methylene chloride (methylene chloride): sparingly soluble | solubility in water (water): practically insoluble | terminal elimination half-life [1]: approximately 23 hours
SMILES: Cc1nc2n(c(=O)c1CCN1CCC(c3noc4cc(F)ccc34)CC1)CCCC2O (stereo not shown) [Paliperidone]
